Assay results published in US12178940B2, “Controlled hydrogel delivery of focal adhesion kinase inhibitor for decreased scar formation” (THE BOARD OF TRUSTEES OF THE LELAND STANFORD JUNIOR …, priority 2018, dated 2024).
Structures can show the parent of a compound that is named as a salt. Where two headings read alike, the source gives them in different places.

Key:
FAK = FAK (Homo sapiens, UniProt Q05397); details: class symbols of Table 1, legend not given; cited from earlier work
advanced solid tumors = details: cited from earlier work
Other Targets = details: Table 1; cited from earlier work
murine dorsal incisions = type: in vivo; details: daily local subcutaneous injection
Procedure: Hypertrophic scar model and local subcutaneous injection of FAKI: Incisional wounding and development of hypertrophic scars on the dorsum of mice were performed by previously described methods (Aarabi et al., 2007; Wong et al., 2011a). Animals were randomly assigned to receive 15, 75, or 150 μM concentrations of FAKI dissolved in 10% DMSO via daily local subcutaneous injection adjacent to the wound site. […] Specimens were harvested at Day 14 post-injury for histology and scar areas were quantified (FIG. 6).

incisional HTS model = details: intradermal injection; cited from earlier work

Chain of FAK (Q05397 whole entry, species assumed): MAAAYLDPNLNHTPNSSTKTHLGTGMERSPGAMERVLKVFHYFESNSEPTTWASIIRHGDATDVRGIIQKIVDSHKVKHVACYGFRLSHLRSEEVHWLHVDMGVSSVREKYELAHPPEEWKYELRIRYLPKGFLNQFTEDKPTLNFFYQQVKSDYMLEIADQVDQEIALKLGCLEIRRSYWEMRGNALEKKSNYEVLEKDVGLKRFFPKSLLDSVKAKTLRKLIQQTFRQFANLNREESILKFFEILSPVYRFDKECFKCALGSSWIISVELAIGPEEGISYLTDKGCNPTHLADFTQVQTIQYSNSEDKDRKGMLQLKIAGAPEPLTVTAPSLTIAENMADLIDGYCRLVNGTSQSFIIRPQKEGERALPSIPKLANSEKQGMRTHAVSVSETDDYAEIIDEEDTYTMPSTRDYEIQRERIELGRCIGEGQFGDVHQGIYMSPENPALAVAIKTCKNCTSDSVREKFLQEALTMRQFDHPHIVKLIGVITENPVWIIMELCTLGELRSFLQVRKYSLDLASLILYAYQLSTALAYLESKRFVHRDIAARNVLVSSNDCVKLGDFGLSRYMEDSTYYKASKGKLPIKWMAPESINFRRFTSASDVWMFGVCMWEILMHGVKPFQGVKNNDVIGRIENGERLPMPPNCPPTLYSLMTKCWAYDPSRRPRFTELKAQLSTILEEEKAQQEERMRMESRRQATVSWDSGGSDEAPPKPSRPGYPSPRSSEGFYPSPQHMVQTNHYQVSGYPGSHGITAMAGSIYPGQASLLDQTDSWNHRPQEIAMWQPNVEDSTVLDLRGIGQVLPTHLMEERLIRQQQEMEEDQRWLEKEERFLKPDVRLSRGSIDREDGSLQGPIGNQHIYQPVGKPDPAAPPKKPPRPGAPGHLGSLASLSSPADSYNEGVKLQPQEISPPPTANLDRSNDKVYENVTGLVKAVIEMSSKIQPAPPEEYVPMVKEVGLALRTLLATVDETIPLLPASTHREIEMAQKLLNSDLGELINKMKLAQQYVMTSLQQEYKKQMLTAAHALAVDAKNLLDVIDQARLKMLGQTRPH

With `CNC(=O)c1ccc(Nc2ncc(C(F)(F)F)c(NCc3nccnc3N(C)S(C)(=O)=O)n2)cc1` [Defactinib] as the molecule, how does the FAK (FAK) read?
The FAK was “✓”.

And the “efficacy in treatment of advanced solid tumors” value (advanced solid tumors; clinical trials)?
The value was “proven effective”.

With `CN(c1ncccc1CNc1nc(Nc2ccc3c(c2)CC(=O)N3)ncc1C(F)(F)F)S(C)(=O)=O` [PF-562271 HCl] as the molecule, how does the “Other Targets” value (Other Targets) read?
The value was “CDK2/ CyclinE,CDK3/ CyclinE,CKD1/ CyclinB”.

With `CN(c1ncccc1CNc1nc(Nc2ccc3c(c2)CC(=O)N3)ncc1C(F)(F)F)S(C)(=O)=O` [PF-562271] as the molecule, how does the “scar lesions (Masson's Trichrome)” value (murine dorsal incisions; 15 μM FAKI in 10% DMSO) read?
The value was “reduced scar lesions”.

And the “scar lesions (Masson's Trichrome)” value (murine dorsal incisions; 75 μM FAKI in 10% DMSO)?
The value was “reduced scar lesions”.

And the “efficacy in treatment of advanced solid tumors” value (advanced solid tumors; clinical trials)?
Its value is “proven effective”.

And the “pharmacokinetics in clinical trials” value (advanced solid tumors; clinical trials)?
Its value is “desired pharmacokinetics”.

And the “reason for discontinuation as an anti-cancer agent” value (advanced solid tumors; dosed orally)?
The value was “potential drug-drug interactions”.

What about the major systemic toxicities (advanced solid tumors; oral administration, clinical trials) of the same molecule?
Its major systemic toxicities is “nausea/vomiting and gastrointestinal-related adverse effects”.

For `CS(=O)(=O)c1cccc(CNc2nc(Nc3ccc4c(c3)CCC(=O)N4)ncc2C(F)(F)F)c1` [PF-573228], which inflammatory chemokine pathways (incisional HTS model) is on record?
Its inflammatory chemokine pathways is “suppressed inflammatory chemokine pathways”.

And the scarring in vivo (incisional HTS model)?
The scarring in vivo was “attenuated scarring”.

For `CC(=O)NCC(=O)N1[C@@H]2CC[C@H]1c1ccc(Nc3ncc(C(F)(F)F)c(NC4CCC4)n3)cc12` [PF-03814735], which “Other Targets” value (Other Targets) is on record?
Its value is “Aurora A, Aurora B, FLT1”.

With `CC(C)=CCC/C(C)=C/CC/C(C)=C/CC/C(C)=C/CC/C(C)=C/CC/C(C)=C/CC/C(C)=C/CC/C(C)=C/CC/C(C)=C/CO` [Solanesol] as the molecule, how does the FAK (FAK) read?
Its FAK is “✓”.

Which “Other Targets” value (Other Targets) does the source give for `CNC(=O)c1ccccc1Nc1nc(Nc2ccc(N3CCOCC3)cc2OC)ncc1Cl` [TAE226] here?
The value was “Insulin Receptor, IGF-1R, c-Met”.
